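In this assay, cells in 96-well plates receive the compound at five concentrations for 48 hours. Endpoints are linearly interpolated between the surrounding concentrations. At the GI50, growth is halved.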 Activity calls are given as the source filed them. Cut-off read from the data, not from the text of the source: active = GI50 up to about 1.1 µM and inactive = higher.
Assays:
Experiment in all cases: growth of human tumour cells (NCI), 48 h
[1] = test system: HOP-18
[2] = test system: RXF 631
[3] = test system: DMS-114
[4] = test system: LXFL 529
[5] = test system: SNB-78
[6] = test system: XF498
[7] = test system: DMS-273
[8] = test system: KM-20L2
[9] = test system: BT-549

Measured: GI50

CCOC(=O)C1=C(C)NC2=C(C(=O)N(c3ccccc3)C2c2ccccc2)C1c1ccccc1 (stereo unspecified)
inactive: [1] 20.4 µM | [2] 16.1 µM | [3] 16.7 µM | [4] 16 µM | [5] 19.4 µM | [6] 18.1 µM

c1ccc(COc2ccc3[nH]c4c5c6ccccc6nc-5c[nH]c4c3c2)cc1
inactive: [7] 16.6 µM | [1] 13.2 µM | [3] 16.6 µM | [4] 16 µM | [5] 20.9 µM | [8] 8.02 µM | [6] 13.7 µM

CC(=O)n1c(=O)c2cc3c(=O)n(-c4cccc(C#N)c4)c(=O)c3cc2c1=O
inactive: [7] 88.1 µM | [1] > 100 µM | [2] > 100 µM | [3] > 100 µM | [4] > 100 µM | [5] 60.3 µM | [8] > 100 µM

O=C(NCC(O)COc1ccccc1)c1ccccc1O (stereo unspecified)
inactive: [9] 27.7 µM

CCN(/N=C1\CC2C=CCN(C2)C(=O)Cc2c1[nH]c1ccccc21)S(=O)(=O)c1ccc(C)cc1 (stereo unspecified)
inactive: [7] 62.4 µM | [2] 96.4 µM | [3] 64.6 µM | [8] 64.1 µM | [6] > 100 µM

Nc1ccc2c(SCCSc3c4ccccc4nc4cc(N)ccc34)c3ccccc3nc2c1
inactive: [9] > 100 µM

CCC1C(c2cc(OC)c(OC)c(OC)c2)c2cc3c(cc2OC1N1CCOCC1)OCO3 (stereo unspecified)
inactive: [9] 2.99 µM

OCC1CCCC(n2cnc3c(S)ncnc32)O1 (stereo unspecified)
inactive: [9] > 100 µM

Cc1ccc(S(=O)(=O)NC(=O)C2=C3SCCN3C(=O)N(S(=O)(=O)c3ccc(C)cc3)C2c2ccccc2)cc1 (stereo unspecified)
inactive: [9] > 100 µM

c1cncc(CSc2nc3ccccc3nc2-c2cccs2)c1
inactive: [7] > 100 µM | [1] > 100 µM | [5] > 100 µM | [6] 35.3 µM

Cc1cc(C)n2c(-c3ccccc3)c(C)cc2n1
inactive: [7] 27.5 µM | [1] > 100 µM | [2] 43.6 µM | [3] 23.8 µM | [5] 94.6 µM | [8] 29 µM

O=C(CSCC(=O)N/N=C/c1cccc(OCc2ccccc2)c1)N/N=C/c1cccc(OCc2ccccc2)c1
inactive: [9] 68.1 µM

c1ccc(CCN2CCOCC2)nc1
inactive: [9] > 100 µM

OC(COc1ccccc1)CN1CCCCC1 (stereo unspecified)
inactive: [9] > 100 µM

COc1ccc(NC(=O)CCc2cc(-c3ccc(O)c(OC)c3)nc(NC#N)n2)cc1
inactive: [1] > 100 µM | [3] > 100 µM | [4] > 100 µM | [5] > 100 µM | [8] > 100 µM

CC1=NN(c2ccccc2)C(=O)C1C(=O)C(=O)Nc1ccc(C)cc1C (stereo unspecified)
inactive: [7] > 100 µM | [1] > 100 µM | [3] > 100 µM | [4] > 100 µM | [5] > 100 µM | [8] > 100 µM

O=C(NN1C(=O)C(Cl)C1c1ccccc1Cl)c1ccccc1O (stereo unspecified)
inactive: [1] > 100 µM | [3] 70 µM | [4] > 100 µM | [5] > 100 µM | [6] 32.7 µM

C=C1C(=O)OC2CC(C)C(/C=C/C(C)=O)=CCC12 (stereo unspecified)
inactive: [9] > 100 µM

CO/N=C(/C(=O)Nc1c[n+](CC(=O)[O-])cs1)c1csc(N)n1
inactive: [7] > 100 µM | [1] > 100 µM | [4] > 100 µM | [5] > 100 µM | [8] > 100 µM | [6] > 100 µM

O=[N+]([O-])C1C2C=CC(C2)[C@H]1c1ccco1 (stereo partly specified)
inactive: [7] > 100 µM | [3] > 100 µM | [4] > 100 µM | [5] > 100 µM | [8] > 100 µM | [6] > 100 µM

N#Cc1ccc2oc3ccc(C#N)cc3c(=O)c2c1
inactive: [9] 25.5 µM

Cc1ccc2nc(/C=N/c3ccc(Cl)cc3)cc(C)c2c1
inactive: [9] 13.9 µM

CCCCCCOc1ccc(NC2=C(Cl)C(=O)c3cccnc3C2=O)cc1
inactive: [9] 3.22 µM

CC(C)(/N=N/C(C)(C)C(=N)N)C(=N)N
inactive: [9] > 100 µM

N#CC(C#N)=C(N)/C(C#N)=C\c1ccnc2ccccc12
inactive: [7] 17.3 µM | [1] > 100 µM | [3] 16.8 µM | [4] 17.2 µM | [5] 27.1 µM | [6] 30.1 µM

Cc1nc(N)nc(S)c1CCCNc1ccccc1
inactive: [9] 70 µM

Cc1cc(O)nc(NN2C(Cl)C(=O)C2c2ccc(O)cc2)n1 (stereo unspecified)
inactive: [9] 9.1 µM | [7] 5.32 µM | [1] 14.6 µM | [3] 7.35 µM | [4] 10.3 µM | [5] 5.87 µM | [8] 18.7 µM

C=C(c1ccccc1)c1cc2c(=O)[nH]ccc2n1C
inactive: [7] 27.5 µM | [3] 19.1 µM | [4] 35.6 µM | [5] 48.5 µM | [8] 23.3 µM | [6] 30.5 µM

Reference: ChEMBL document CHEMBL1201862, “PubChem BioAssay data set” (2004)
